Test results reported in US9783510B2, “Small molecule mediated transcriptional induction of E-cadherin” (Vanderbilt University, priority 2014, dated 2017).

Experiments:
[1] = system: E-cadherin expression in SW620 cells; assay: E-cadherin expression, in-cell Western (ICW), SW620 cells; assay type: cell-based; settings: for fold induction at 10 µM: SW-620, 24 h; for EC50: inducement of E-cadherin expression in SW620 cells
Procedure, shortened: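 SW620 cells were treated with compound for 24 h in RPMI 1640 (single-point at 10 μM; EC50 also determined), in quadruplicate. After methanol fixation, in-cell Western with anti-E-cadherin and anti-α-tubulin primaries and IRDye 800/700 secondaries. Read on an Odyssey IR imager.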

[2] = system: E-cadherin expression in H520 cells; assay: E-cadherin expression, in-cell Western (ICW), H520 cells; assay type: cell-based; settings: Homo sapiens, NCI-H520; for fold induction at 10 µM: change in expression level of E-cadherin in response to 10 μM compound, 24 hours, H520 cells; for EC50: inducement of E-cadherin expression in H520 cells
Experimental: SW620 and H520 cells (5×10^4/100 μL) were seeded in a 96-well plate prior to treatment. Cells were treated with 10 μM concentration of synthesized compound in quadruplicate for 24 hours in RPMI 1640 supplemented medium and 100 μg/mL penicillin-streptomycin. The cells were then fixed with 100% methanol for 20 minutes at 4° C. The wells were then washed 2 times with PBS, permeabilized in 2% bovine serum albumin (BSA) and 0.2% TritonX-100 in PBS for 30 minutes at room temperature with gentle agitation, and blocked in LI-COR blocking buffer for 30 minutes at room temperature with gentle agitation. The cells were then incubated with the following primary antibodies: anti-E-Cadherin (1:500) and anti-α-Tubulin (1:1000) diluted in blocking buffer (1:1 dilution in PBS) for 2 hours at room temperature with gentle agitation. The cells were washed 4 times in PBS-T for 5 minutes each, and then incubated with the following secondary antibodies conjugated to a fluorescent entity: IRDye 800-conjugated goat anti-rabbit IgG (1:1000) and IRDye-700-conjugated goat anti-mouse IgG (1:2000) in blocking buffer (1:1 dilution in PBS) with gentle agitation for 1 h at room temperature. The cells were washed 4 times in PBS-T for 5 minutes each followed by a single wash with PBS. All liquid was removed from the wells and the plates were visualized and analyzed on the Odyssey IR imaging system (LI-COR Biosciences).
The assay was further optimized in the following manner. The cells were washed 2 times with PBS, fixed in 100% methanol at room temperature for 15 minutes, and again washed 2 times with PBS. The cells were then incubated with the following primary antibodies: anti-E-Cadherin (1:200) and anti-α-Tubulin (1:2000) diluted in ice cold 2% bovine serum albumin (BSA) and 0.2% TritonX-100 in PBS for 1 hour at room temperature with gentle agitation. The cells were washed 2 times in PBS and then incubated with the following secondary antibodies conjugated to a fluorescent entity: Licor 800-conjugated goat anti-rabbit IgG (1:2000) and IRDye-700-conjugated goat anti-mouse IgG (1:2000) in ice cold 2% BSA and 0.2% TritonX-100 in PBS with gentle agitation for 45 minutes at room temperature. The wells were washed 2 times in PBS, dried, and analyzed as previously mentioned.
Changes in expression level of E-cadherin in response to 10 μM compound in H520 cells was determined in a cell-based functional assay as described above, and the data are shown in Table IV. The compound number corresponds to the compound numbers used in Table II.
EC50 of inducement of E-cadherin expression in H520 cells was determined in a cell-based functional assay as described above, and the data are shown in Table VI. The compound number corresponds to the compound numbers used in Table II.

HMEC-1 cells = assay: E-cadherin, VE-cadherin, Vimentin and histone marks in HMEC-1 cells (qPCR, Western blot); assay type: cell-based, human; settings: after 48 hours of treatment
[3] = system: proximal region of the E-cadherin promoter (Cdh1) in SW620inv cells; assay: ChIP assay at proximal E-cadherin promoter, SW620inv cells; assay type: cell-based; settings: ChIP (FIG. 8)
[4] = system: E-cadherin, H3K9Ac, H3K4me3, H3K27me3, H3K4me2 in SW620inv cells; assay: Western blot time course of E-cadherin and histone H3 marks, SW620inv cells; assay type: cell-based
cyclin D1 protein = assay: Cyclin D1 protein by ICW (control for cycloheximide); assay type: cell-based; settings: within the 7 hour experimental interval
Experimental: Compound 13 increased the mRNA levels of E-cadherin specific mRNA by 27-fold in SW620inv cells (FIG. 3B) and by 20-fold in H520 cells (FIG. 3C) by 6 hours post-treatment. […] Whether de novo protein synthesis was required for the effect of Compound 13 on E-cadherin mRNA expression was determined. For these experiments, cells were treated with cycloheximide prior to application of Compound 13 and the expression of E-cadherin mRNA was evaluated 6 hours post-treatment for best sensitivity. The levels of cyclin D1 protein, known to have a very short half-life of ˜20 minutes (Diehl, J. A., et al. (1998) Genes & Development 12, 3499-3511), were analyzed as a positive control for the effectiveness of cycloheximide (CHX) treatment.
Referring to FIG. 4B and FIG. 4C, quantification of cyclin D1 protein by ICW, as described above, and under similar conditions as in (4A) at 6 h post-treatment with or without cyclohexamide.

[5] = Homo sapiens, change in expression level of E-cadherin in response to 10 μM compound, 24 hours, SW620 cells

EC50 ([1]; Homo sapiens, SW-620) [µM] | Molecule | fold induction at 10 µM [1, 5] | fold induction at 10 µM [2] | further results
3.7 | O=C(Cc1ccccc1O)NCCNC(=O)c1cc(-c2ccccc2)on1 [Compound 1, N-(2-(2-(2-hydroxyphenyl)acetamido)ethyl)-5-phenylisoxazole-3-carboxamide] | 3.4 | 3.51 | EC50 [2]: 5.6 µM
 | O=C(NCCNC(=O)c1cc(Br)ccc1O)c1cc(-c2ccccc2)on1 [Compound 2, N-(2-(5-bromo-2-hydroxybenzamido)ethyl)-5-phenylisoxazole-3-carboxamide] | 1.18 | 1.14 | 
8.8 | O=C(NCCNC(=O)c1cc(-c2ccccc2)on1)c1ccncc1 [Compound 4, N-(2-(isonicotinamido)ethyl)-5-phenylisoxazole-3-carboxamide] | 2.79 | 2.87 | EC50 [2]: 5.1 µM
4.8 | O=C(NCCNC(=O)c1nccs1)c1cc(-c2ccccc2)on1 [Compound 5, 5-phenyl-N-(2-(thiazole-2-carboxamido)ethyl)isoxazole-3-carboxamide] | 8.98 | 4.22 | 
 | Nc1ncn([C@@H]2O[C@H](CO)[C@@H](O)[C@H]2O)c(=O)n1 [Compound 5-Aza, 5-azacytidine] |  |  | restoring E-cadherin in HMEC-1 cells (HMEC-1 cells): neither TSA nor 5-Aza, nor the combination of these two agents, was effective
5 | O=C(NCCCNC(=O)c1cc(F)ccc1O)c1cc(-c2ccccc2)on1 [Compound 20, N-(3-(5-fluoro-2-hydroxybenzamido)propyl)-5-phenylisoxazole-3-carboxamide] | 2.43 | 5.27 | EC50 [2]: 1.4 µM
4.97 | O=C(Cc1ccccc1O)NCCCNC(=O)c1cc(-c2ccccc2)on1 [Compound 21, N-(3-(2-(2-hydroxyphenyl)acetamido)propyl)-5-phenylisoxazole-3-carboxamide] | 4.92 | 5.92 | EC50 [2]: 1.5 µM
 | O=C(NCCCNC(=O)c1n[nH]c2ccccc12)c1cc(-c2ccccc2)on1 [Compound 22, N-(3-(1H-indazole-3-carboxamido)propyl)-5-phenylisoxazole-3-carboxamide] | 1.62 | 1.88 | 
 | CCc1ccc(C(=O)NCCCNC(=O)c2cc(-c3ccccc3)on2)o1 [Compound 115, N-(3-(5-ethylfuran-2-carboxamido)propyl)-5-phenylisoxazole-3-carboxamide] | 3.83 |  | 
 | Cn1cnc(C(=O)NCCCNC(=O)c2cc(-c3ccccc3)on2)c1 [Compound 116, N-(3-(1-methyl-1H-imidazole-4-carboxamido)propyl)-5-phenylisoxazole-3-carboxamide] | 2.6 |  | 
 | O=C(NCCCNC(=O)c1cnn[nH]1)c1cc(-c2ccccc2)on1 [Compound 117, N-(3-(1H-1,2,3-triazole-5-carboxamido)propyl)-5-phenylisoxazole-3-carboxamide] | 3.71 |  | 
5.45 | Nc1cncc(C(=O)NCCCNC(=O)c2cc(-c3ccccc3)on2)n1 [Compound 118, N-(3-(6-aminopyrazine-2-carboxamido)propyl)-5-phenylisoxazole-3-carboxamide] | 4.38 |  | 
5.64 | O=C(NCCCNC(=O)c1cc(-c2ccccc2)on1)c1cc(-c2ccccc2)ccn1 [Compound 119, 5-phenyl-N-(3-(4-phenylpicolinamido)propyl)isoxazole-3-carboxamide] | 4.13 |  | 
 | O=C(NCCCNC(=O)c1cccc(C(F)(F)F)n1)c1cc(-c2ccccc2)on1 [Compound 120, 5-phenyl-N-(3-(6-(trifluoromethyl)picolinamido)propyl)isoxazole-3-carboxamide] | 3.08 |  | 
 | O=C(NCCCNC(=O)C1CCCCO1)c1cc(-c2ccccc2)on1 (centres unmarked) [Compound 121, 5-phenyl-N-(3-(tetrahydro-2H-pyran-2-carboxamido)propyl)isoxazole-3-carboxamide] | 3.74 |  | 
 | O=C(NCCNC(=O)c1cc(F)ccc1O)c1cc(-c2ccccc2)[nH]n1 [Compound 122, N-(2-(5-fluoro-2-hydroxybenzamido)ethyl)-5-phenyl-1H-pyrazole-3-carboxamide] | 1.45 | 1.04 | 
 | O=C(Cc1ccccc1O)NCCNC(=O)c1cc(-c2ccccc2)[nH]n1 [Compound 123, N-(2-(2-(2-hydroxyphenyl)acetamido)ethyl)-5-phenyl-1H-pyrazole-3-carboxamide] | 1.37 | 1.24 | 
 | O=C(NCCNC(=O)c1cc(-c2ccccc2)[nH]n1)c1ccncc1 [Compound 124, N-(2-(5-phenyl-1H-pyrazole-3-carboxamido)ethyl)isonicotinamide] | 1.29 | 1.22 | Pol II association with the E-cadherin proximal promoter [3]: did not show any effect
 | O=C(NCCNC(=O)c1nccs1)c1cc(-c2ccccc2)[nH]n1 [Compound 125, N-(2-(5-phenyl-1H-pyrazole-3-carboxamido)ethyl)thiazole-2-carboxamide] | 1.77 | 1.1 | 
 | CC(/C=C/C(=O)NO)=C\[C@@H](C)C(=O)c1ccc(N(C)C)cc1 [TSA, trichostatin A] |  |  | modification of the repressive marker H3K27me3 [4]: Less overall modification; time of peak of H3K9Ac and H3K4me3 levels ([4]; 0.33 μM TSA): 6 h; time at which increase in H3K9Ac and H3K4me3 levels is first observed ([4]; 10 μM Compound 13, 0.33 μM TSA): 1 h; restoring E-cadherin in HMEC-1 cells (HMEC-1 cells): neither TSA nor 5-Aza, nor the combination of these two agents, was effective
 | C[C@@H]1C[C@@H]([C@H](O)CC2CC(=O)NC(=O)C2)C(=O)[C@@H](C)C1 [cycloheximide] |  |  | cyclin D1 levels (cyclin D1 protein): markedly reduced; β-actin protein levels (cyclin D1 protein): not significantly altered
 | N-(3-(5-chlorofuran-2-carboxamido)propyl)-5-phenylisoxazole-3-carboxamide [Compound 113] |  |  | fold change SW620 ICW ([1]; change in expression level of E-cadherin in response to 10 μM compound, 24 hours, SW620 cells): 4.09 fold; EC50 [1]: 4.59 µM
